Test results as given in patent publication US5854067A, “Hexokinase inhibitors” (priority 1996, dated 1998).
Where two headings read alike, the source gives them in different places. Each block holds one molecule with its values, some of them ahead of it.

Key:
[1] = system: Glucokinase (GK, hexokinase IV); conditions: Table 1, GK, cited from earlier work
[2] = system: Hexokinases I, II, and III (HK I-III, low Km hexokinases); conditions: Table 1, HK I-III, cited from earlier work
[3] = biological target: T1, native (wild type) islet glucokinase (Rattus norvegicus, UniProt P17712); experiment: Radioisotopic glucose phosphorylating activity assay in extracts of transiently transfected 293 cells, with and without G6P; assay type: biochemical; conditions: 10 mM unlabeled G6P, 3 and 20 mM glucose, 293 cell extracts
T1 construct: Plasmids containing DNA encoding either intact islet glucokinase; expressed in transfected cells; host or cells: 293 human embryonic kidney cells, transient transfection, crude extract
T1 sequence (P17712 1-465): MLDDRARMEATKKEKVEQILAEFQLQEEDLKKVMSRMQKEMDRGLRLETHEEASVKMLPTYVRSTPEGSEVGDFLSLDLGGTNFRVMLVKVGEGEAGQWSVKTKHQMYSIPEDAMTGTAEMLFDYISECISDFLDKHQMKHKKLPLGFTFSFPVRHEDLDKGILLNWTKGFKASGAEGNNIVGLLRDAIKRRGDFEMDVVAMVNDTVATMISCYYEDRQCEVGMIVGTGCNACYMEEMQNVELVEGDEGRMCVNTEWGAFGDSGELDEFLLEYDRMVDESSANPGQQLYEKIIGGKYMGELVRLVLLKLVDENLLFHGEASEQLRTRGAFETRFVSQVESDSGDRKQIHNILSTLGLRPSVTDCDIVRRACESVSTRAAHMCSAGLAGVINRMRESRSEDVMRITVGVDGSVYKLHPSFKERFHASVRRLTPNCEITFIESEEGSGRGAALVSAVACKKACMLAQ
Description: Plasmids containing DNA encoding either intact islet glucokinase, hexokinase I or one of the two hexokinase/glucokinase chimeras were introduced into the human embryonic kidney cell line 293, using Ca2 PO4 co-precipitation. After incubation with the plasmid DNA, cells were cultured for an additional 48 hours.
Assays were performed at 3 and 20 mM glucose. At the lower glucose concentration, hexokinase activity is maximal while glucokinase activity is very low. […] The assay was also performed in the presence and absence of 10 mM unlabeled glucose-6-phosphate (G6P).

Structure (SMILES): OC[C@H]1OC(O)[C@H](O)[C@@H](O)[C@@H]1O (some centres unmarked) [glucose]
- Km ([1]; read-out: Km glucose): 5000 to 12000 µM
- Km ([2]; read-out: Km glucose): 20 to 130 µM

- effect of glucose-6-phosphate on glucose phosphorylating activity [3]: no significant effect
Structure (SMILES): O=P(O)(O)OC[C@H]1OC(O)[C@H](O)[C@@H](O)[C@@H]1O (some centres unmarked) [G-6-P, glucose-6-phosphate]

Structure (SMILES): Nc1ncnc2c1ncn2[C@@H]1O[C@H](COP(=O)(O)OP(=O)(O)OP(=O)(O)O)[C@@H](O)[C@H]1O [ATP]
- Km ([1]; read-out: Km ATP): 500 µM
- Km ([2]; read-out: Km ATP): 200 to 500 µM
